The record followed here is PubChem BioAssay (NCI).

Test systems include COLO 205 colon; T-47D breast; DU-145 prostate; HCT-116 colon; MALME-3M melanoma; ACHN renal; OVCAR-3 ovarian; IGROV1 ovarian; NCI/ADR-RES ovarian; SR leukemia; 786-0 renal.
Common to all, as to test: NCI tumour cell line growth inhibition, 48 h

“And” between values parts separate entries of the source, which are not always exact repeats. Identical values can stand only once.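 Assay format: 96-well plates, 48-hour exposure. Here, GI50 denotes the concentration required for 50% inhibition of growth. TGI denotes the concentration required for complete inhibition of growth.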

As to `CC1(C)COC2=C(C1)C(=O)c1ccccc1C2=O`, the TGI stood at 4.04 µM in the test on COLO 205 colon; 2.44 µM in the test with T-47D breast; 3.07 µM in the test with DU-145 prostate; 1.7 µM in the test on HCT-116 colon; 3.29 µM with MALME-3M melanoma; 2.9 µM with ACHN renal. Further, the TGI stood at 2.06 µM with OVCAR-3 ovarian; 3.45 µM with IGROV1 ovarian; 1.94 µM in the test on NCI/ADR-RES ovarian; 8.37 µM in the test with SR leukemia; 3.29 µM in the test on 786-0 renal.

With `Cc1ccc2nc(-c3ccc(C(C)(C)C)cc3)oc(=O)c2c1`, the TGI came to 35.5 µM in the test on COLO 205 colon; 83.4 µM with T-47D breast; 68.4 µM with DU-145 prostate; 51.9 µM with HCT-116 colon; 53.9 µM in the test with MALME-3M melanoma; 36.6 µM with ACHN renal. The TGI in the test with OVCAR-3 ovarian is 60.9 µM; in the test on IGROV1 ovarian, 87.6 µM; in the test on NCI/ADR-RES ovarian, 54.2 µM; in the test with SR leukemia, 59.7 µM; with 786-0 renal, 68.2 µM.

With `COC1(CC[C@@H](C)COC2OC(CO)C(O)C(O)C2O)O[C@H]2C[C@H]3[C@@H]4CC=C5C[C@@H](OC6OC(CO)C(O)C(OC7OC(CO)C(O)C(O)C7O)C6OC6OC(C)C(O)C(O)C6O)CC[C@]5(C)[C@H]4CC[C@]3(C)[C@H]2[C@@H]1C` (stereo partly drawn), the TGI in the test with COLO 205 colon was > 37.5 µM; with T-47D breast it was 25.9 µM; in the test on DU-145 prostate it was 14.7 µM; with HCT-116 colon it was 34.9 µM; with MALME-3M melanoma, 9.29 µM; in the test with ACHN renal it was 30.1 µM. For the same compound, the TGI with OVCAR-3 ovarian is 32.2 µM; with IGROV1 ovarian it was 19.8 µM; with NCI/ADR-RES ovarian, 33.6 µM; with SR leukemia it was > 100 µM; in the test on 786-0 renal it was 8.33 µM.

Regarding `CC(Oc1ccccc1)C(=O)NNC(=O)OC(C)(C)C` (stereo not drawn), the TGI in the test on COLO 205 colon, in the test with T-47D breast, with DU-145 prostate, with HCT-116 colon, in the test with MALME-3M melanoma and in the test with ACHN renal was > 100 µM throughout. The TGI with OVCAR-3 ovarian, with IGROV1 ovarian, with NCI/ADR-RES ovarian, with SR leukemia and with 786-0 renal was > 100 µM each time.

Consider `COc1nc2ccc(COc3ccc(C(=O)O)cc3)cc2nc1OC`, for which the TGI in the test on COLO 205 colon, in the test on T-47D breast, in the test with DU-145 prostate, in the test on HCT-116 colon, in the test on MALME-3M melanoma and in the test with ACHN renal was > 100 µM in each case. Besides, the TGI with OVCAR-3 ovarian, in the test on IGROV1 ovarian, with NCI/ADR-RES ovarian, in the test on SR leukemia and in the test with 786-0 renal was > 100 µM throughout.

In the case of `COc1cc2c(/C=C3/C(=O)Nc4ccc(Cl)cc43)c(Cl)[nH]c2cc1C`, the TGI was found to be 2.44 µM in the test with COLO 205 colon; 26.9 µM in the test with T-47D breast; 4.38 µM with DU-145 prostate; 10.7 µM with HCT-116 colon; 20.9 µM in the test on MALME-3M melanoma; 10.8 µM with ACHN renal. Besides, the TGI amounted to 3.14 µM in the test with OVCAR-3 ovarian; 5.43 µM with IGROV1 ovarian; 6.44 µM in the test with NCI/ADR-RES ovarian; 0.926 µM in the test with SR leukemia; 15.4 µM with 786-0 renal.

As to `CC(=O)OCC1OC(n2c(S)c(C#N)c(-c3ccccc3)c(C#N)c2=O)C(OC(C)=O)C(OC(C)=O)C1OC(C)=O` (stereo not drawn), the GI50 was > 100 µM and 26.1 µM in the test on COLO 205 colon; > 100 µM and 18.6 µM in the test with T-47D breast; > 100 µM and 39.3 µM in the test with HCT-116 colon; > 100 µM and 32.2 µM in the test on MALME-3M melanoma; > 100 µM and 19.5 µM in the test on OVCAR-3 ovarian; > 100 µM and 32.1 µM with SR leukemia. Moreover, the TGI in the test with COLO 205 colon is > 100 µM and 65.3 µM; in the test on T-47D breast, > 100 µM and 54.4 µM; in the test on DU-145 prostate it was > 100 µM; in the test on HCT-116 colon it was > 100 µM; in the test with MALME-3M melanoma, > 100 µM and 98.9 µM; in the test with ACHN renal, > 100 µM. In addition, the TGI is > 100 µM and 36.9 µM in the test with OVCAR-3 ovarian; > 100 µM in the test on IGROV1 ovarian; > 100 µM with NCI/ADR-RES ovarian; > 100 µM and 57.7 µM with SR leukemia; > 100 µM and 83.4 µM with 786-0 renal.

In the case of `COC(=O)C1(SC)C2CCC3C2CCC31` (stereo not drawn), the TGI in the test on COLO 205 colon, with T-47D breast, in the test on DU-145 prostate, with HCT-116 colon, in the test on MALME-3M melanoma and in the test on ACHN renal was > 100 µM each time. Further, the TGI in the test on OVCAR-3 ovarian, in the test on IGROV1 ovarian, in the test with NCI/ADR-RES ovarian, in the test with SR leukemia and with 786-0 renal was > 100 µM throughout.

Take `C(=Nc1ccc(-c2nc3ccccc3s2)cc1)c1ccc[nH]1`: the TGI in the test with COLO 205 colon stood at 31.8 µM; with T-47D breast, 47.3 µM; with DU-145 prostate, 34.5 µM; in the test with HCT-116 colon it was 29.9 µM; with MALME-3M melanoma, 32.2 µM; in the test on ACHN renal, 60.7 µM. The TGI in the test on OVCAR-3 ovarian was found to be 39.5 µM; in the test with IGROV1 ovarian it was 40.6 µM; with NCI/ADR-RES ovarian, 44.6 µM; in the test with SR leukemia, 49.5 µM; with 786-0 renal, 52.4 µM.

For `C[C@]12CC(c3ccccc3O1)C(C(=O)Nc1nc(C34CC5CC(CC(C5)C3)C4)cs1)C(=O)N2` (stereo partly drawn), the TGI in the test with COLO 205 colon, in the test with T-47D breast, in the test with DU-145 prostate, in the test with HCT-116 colon, in the test on MALME-3M melanoma and in the test on ACHN renal was > 100 µM each time. Further, the TGI in the test with OVCAR-3 ovarian, in the test with IGROV1 ovarian, in the test with NCI/ADR-RES ovarian, in the test with SR leukemia and with 786-0 renal was > 100 µM each time.

As for `O=C(NO)NCCCl`, the TGI in the test with COLO 205 colon, in the test on T-47D breast, with DU-145 prostate, in the test on HCT-116 colon, with MALME-3M melanoma and in the test on ACHN renal was > 100 µM each time. Also, the TGI in the test with OVCAR-3 ovarian, with IGROV1 ovarian, in the test on NCI/ADR-RES ovarian, in the test with SR leukemia and in the test on 786-0 renal was > 100 µM throughout.

In the case of `COc1cc(OC)c2c(c1)OC(c1cccnc1)C(c1ccccc1)C2=O` (stereo not drawn), the TGI in the test with COLO 205 colon, in the test on T-47D breast, in the test with DU-145 prostate, in the test with HCT-116 colon, with MALME-3M melanoma and with ACHN renal was > 100 µM throughout. Besides, the TGI with OVCAR-3 ovarian, with IGROV1 ovarian, in the test on NCI/ADR-RES ovarian, in the test on SR leukemia and in the test with 786-0 renal was > 100 µM in each case.
